Structures are written as SMILES. pIC50: −log10 of the molar value. Structures can show the parent of a compound that is named as a salt. Where only a bound is given, the exact number is not on record here.

The target in the first experiment is T1, Human VAP-1 (Homo sapiens, UniProt Q16853).
T1 sequence (Q16853 1-763): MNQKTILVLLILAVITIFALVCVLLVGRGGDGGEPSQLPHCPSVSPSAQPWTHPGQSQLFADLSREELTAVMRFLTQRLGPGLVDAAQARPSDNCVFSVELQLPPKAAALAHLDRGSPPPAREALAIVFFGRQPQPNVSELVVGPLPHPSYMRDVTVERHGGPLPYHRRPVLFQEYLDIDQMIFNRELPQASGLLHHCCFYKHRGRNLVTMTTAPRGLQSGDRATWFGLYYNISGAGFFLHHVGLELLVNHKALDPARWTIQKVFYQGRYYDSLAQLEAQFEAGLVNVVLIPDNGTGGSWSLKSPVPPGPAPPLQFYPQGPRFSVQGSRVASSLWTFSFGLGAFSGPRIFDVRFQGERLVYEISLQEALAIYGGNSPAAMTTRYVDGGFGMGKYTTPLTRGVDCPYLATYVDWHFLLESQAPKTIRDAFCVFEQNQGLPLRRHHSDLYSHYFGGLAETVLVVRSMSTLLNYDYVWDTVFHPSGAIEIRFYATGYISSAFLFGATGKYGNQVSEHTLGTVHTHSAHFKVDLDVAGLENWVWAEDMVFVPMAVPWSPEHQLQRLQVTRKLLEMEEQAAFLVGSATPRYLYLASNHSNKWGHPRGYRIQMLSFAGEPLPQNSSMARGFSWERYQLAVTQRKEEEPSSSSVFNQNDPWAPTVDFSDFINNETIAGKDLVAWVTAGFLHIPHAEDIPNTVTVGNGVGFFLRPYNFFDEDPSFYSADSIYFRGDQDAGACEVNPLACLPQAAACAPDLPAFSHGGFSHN
The experiment is described as follows: VAP-1 inhibition assay (Amplex Red continuous fluorescence assay). It counts as biochemical. The note with it: 30 min pre-incubation at 37° C.; substrate benzylamine; read-out: Human VAP-1 IC50. Put shortly:
(§1)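 Continuous Amplex Red/HRP fluorescence read of H2O2 (ex/em 510/565 nm, 5 min). Substrates and buffers: VAP-1 benzylamine, […] sodium phosphate pH 7.4, 30 min 37° C preincubation; MAO-A tyramine and MAO-B benzylamine, same buffer, room temp; DAO histamine, 50 mM HEPES pH 7.5, room temp. IC50 from 4-parameter fit of rates.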
In general, pIC50 refers to the negative decadic logarithm of the IC50, by convention in mol/L. Regarding `NC/C(=C/F)COc1ccc(-c2cocn2)cc1` [Compound 30, (Z)-3-fluoro-2-((4-(oxazol-4-yl)phenoxy)methyl)prop-2-en-1-amine hydrochloride], the negative logarithm of the IC50 (pIC50) is greater than 5.52.

Take `NC/C(=C/F)COc1ccc(-c2ncon2)cc1` [Compound 44, (Z)-2-((4-(1,2,4-OXADIAZOL-3-YL)PHENOXY)METHYL)-3-FLUOROPROP-2-EN-1-AMINE HYDROCHLORIDE]: the pIC50 was greater than 5.52.

On to `Cn1ccc(-c2ccc(OC/C(=C\F)CN)cc2)n1` [Compound 54, (Z)-3-fluoro-2-((4-(1-methyl-1H-pyrazol-3-yl)phenoxy)methyl)prop-2-en-1-amine hydrochloride], for which the pIC50 was greater than 5.52.

Take `NC/C(=C\F)COc1ccc(C2=NCCN2)cc1` [Compound 61, (E)-2-((4-(4,5-dihydro-1H-imidazol-2-yl)phenoxy)methyl)-3-fluoroprop-2-en-1-amine]: the negative logarithm of the IC50 (pIC50) is greater than 5.52.

In the case of `NC/C(=C/F)COc1ccc(-c2nnn[nH]2)cc1` [Compound 52, (Z)-2-((4-(1H-tetrazol-5-yl)phenoxy)methyl)-3-fluoroprop-2-en-1-amine hydrochloride], the pIC50 is greater than 5.52.

Take `NC/C(=C\F)CNC(=O)Nc1ccccc1` [Compound 71]: the pIC50 was greater than 5.52.

Take `CC(C)(C)NC(=O)c1ccc(NC/C(=C\F)CN)cc1` [Compound 46, (Z)-4-((2-(aminomethyl)-3-fluoroalkyl)amino)-N-(tert-butyl)benzamide hydrochloride]: the pIC50 is greater than 5.52.

In the next experiment the target is T2, Human MAO-A (Homo sapiens, UniProt P21397).
T2 sequence (P21397 1-527): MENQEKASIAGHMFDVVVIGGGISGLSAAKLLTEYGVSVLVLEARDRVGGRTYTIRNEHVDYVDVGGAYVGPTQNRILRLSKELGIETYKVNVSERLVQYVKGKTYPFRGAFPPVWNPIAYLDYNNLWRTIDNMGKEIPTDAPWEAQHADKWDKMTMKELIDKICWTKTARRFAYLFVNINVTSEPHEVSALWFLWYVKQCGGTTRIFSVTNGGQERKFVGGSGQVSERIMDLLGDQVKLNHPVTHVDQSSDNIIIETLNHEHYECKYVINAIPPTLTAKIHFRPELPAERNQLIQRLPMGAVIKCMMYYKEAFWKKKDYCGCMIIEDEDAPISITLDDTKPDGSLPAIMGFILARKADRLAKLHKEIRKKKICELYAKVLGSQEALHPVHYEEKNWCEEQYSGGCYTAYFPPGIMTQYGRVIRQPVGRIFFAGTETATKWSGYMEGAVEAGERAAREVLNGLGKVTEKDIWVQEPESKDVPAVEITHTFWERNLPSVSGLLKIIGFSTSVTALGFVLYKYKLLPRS
Briefly: MAO-A inhibition (Amplex Red continuous fluorescence assay). The note with it: 30 min pre-incubation at room temp; substrate tyramine; read-out: Human MAO-A IC50. The experiment is classed as biochemical. Put shortly:
as §1
Consider `NC/C(=C/F)COc1ccc(-c2cocn2)cc1` [Compound 30, (Z)-3-fluoro-2-((4-(oxazol-4-yl)phenoxy)methyl)prop-2-en-1-amine hydrochloride], for which the negative-log IC50 (pIC50) was greater than 5.52.

In the case of `NC/C(=C/F)COc1ccc(-c2ncon2)cc1` [Compound 44, (Z)-2-((4-(1,2,4-OXADIAZOL-3-YL)PHENOXY)METHYL)-3-FLUOROPROP-2-EN-1-AMINE HYDROCHLORIDE], the pIC50 is greater than 5.52.

With `Cn1ccc(-c2ccc(OC/C(=C\F)CN)cc2)n1` [Compound 54, (Z)-3-fluoro-2-((4-(1-methyl-1H-pyrazol-3-yl)phenoxy)methyl)prop-2-en-1-amine hydrochloride], the pIC50 is 5.00 to 5.52.

Regarding `NC/C(=C\F)COc1ccc(C2=NCCN2)cc1` [Compound 61, (E)-2-((4-(4,5-dihydro-1H-imidazol-2-yl)phenoxy)methyl)-3-fluoroprop-2-en-1-amine], the negative logarithm of the IC50 (pIC50) is less than 5.00.

As to `NC/C(=C/F)COc1ccc(-c2nnn[nH]2)cc1` [Compound 52, (Z)-2-((4-(1H-tetrazol-5-yl)phenoxy)methyl)-3-fluoroprop-2-en-1-amine hydrochloride], the pIC50 is less than 5.00.

As for `NC/C(=C\F)CNC(=O)Nc1ccccc1` [Compound 71], the pIC50 is greater than 5.52.

For the molecule `CC(C)(C)NC(=O)c1ccc(NC/C(=C\F)CN)cc1` [Compound 46, (Z)-4-((2-(aminomethyl)-3-fluoroalkyl)amino)-N-(tert-butyl)benzamide hydrochloride], the pIC50 is less than 5.00.

For the next experiment, the target named is T3, Human MAO-B (Homo sapiens, UniProt P27338).
T3 sequence (P27338 1-520): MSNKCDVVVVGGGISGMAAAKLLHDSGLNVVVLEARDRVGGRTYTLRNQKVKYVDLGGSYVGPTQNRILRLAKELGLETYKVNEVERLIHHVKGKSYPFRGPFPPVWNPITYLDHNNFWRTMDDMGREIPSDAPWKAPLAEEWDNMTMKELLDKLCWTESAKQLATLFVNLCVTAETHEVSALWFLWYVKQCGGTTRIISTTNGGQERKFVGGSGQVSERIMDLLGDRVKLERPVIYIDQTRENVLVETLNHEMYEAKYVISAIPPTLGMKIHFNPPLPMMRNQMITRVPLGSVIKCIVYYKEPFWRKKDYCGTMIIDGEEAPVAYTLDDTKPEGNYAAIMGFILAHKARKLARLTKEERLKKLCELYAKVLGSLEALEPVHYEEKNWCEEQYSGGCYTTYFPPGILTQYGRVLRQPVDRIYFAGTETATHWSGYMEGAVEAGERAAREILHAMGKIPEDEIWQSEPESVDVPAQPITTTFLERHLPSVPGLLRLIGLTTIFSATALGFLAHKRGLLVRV
Briefly: MAO-B inhibition (Amplex Red continuous fluorescence assay). The experiment is classed as biochemical. The note with it: 30 min pre-incubation at room temp; substrate benzylamine; read-out: Human MAO-B IC50. Put shortly:
as §1
As to `NC/C(=C/F)COc1ccc(-c2cocn2)cc1` [Compound 30, (Z)-3-fluoro-2-((4-(oxazol-4-yl)phenoxy)methyl)prop-2-en-1-amine hydrochloride], the pIC50 is greater than 5.52.

As for `NC/C(=C/F)COc1ccc(-c2ncon2)cc1` [Compound 44, (Z)-2-((4-(1,2,4-OXADIAZOL-3-YL)PHENOXY)METHYL)-3-FLUOROPROP-2-EN-1-AMINE HYDROCHLORIDE], the pIC50 is greater than 5.52.

On to `Cn1ccc(-c2ccc(OC/C(=C\F)CN)cc2)n1` [Compound 54, (Z)-3-fluoro-2-((4-(1-methyl-1H-pyrazol-3-yl)phenoxy)methyl)prop-2-en-1-amine hydrochloride], for which the negative-log IC50 (pIC50) was greater than 5.52.

On to `NC/C(=C\F)COc1ccc(C2=NCCN2)cc1` [Compound 61, (E)-2-((4-(4,5-dihydro-1H-imidazol-2-yl)phenoxy)methyl)-3-fluoroprop-2-en-1-amine], for which the negative logarithm of the IC50 (pIC50) was less than 5.00.

`NC/C(=C/F)COc1ccc(-c2nnn[nH]2)cc1` [Compound 52, (Z)-2-((4-(1H-tetrazol-5-yl)phenoxy)methyl)-3-fluoroprop-2-en-1-amine hydrochloride]: the negative logarithm of the IC50 (pIC50) was less than 5.00.

In the case of `NC/C(=C\F)CNC(=O)Nc1ccccc1` [Compound 71], the pIC50 was less than 5.00.

`CC(C)(C)NC(=O)c1ccc(NC/C(=C\F)CN)cc1` [Compound 46, (Z)-4-((2-(aminomethyl)-3-fluoroalkyl)amino)-N-(tert-butyl)benzamide hydrochloride]: the pIC50 is greater than 5.52.

The target of another experiment is T4, Human DAO (Homo sapiens, UniProt P19801).
T4 sequence (P19801 20-751): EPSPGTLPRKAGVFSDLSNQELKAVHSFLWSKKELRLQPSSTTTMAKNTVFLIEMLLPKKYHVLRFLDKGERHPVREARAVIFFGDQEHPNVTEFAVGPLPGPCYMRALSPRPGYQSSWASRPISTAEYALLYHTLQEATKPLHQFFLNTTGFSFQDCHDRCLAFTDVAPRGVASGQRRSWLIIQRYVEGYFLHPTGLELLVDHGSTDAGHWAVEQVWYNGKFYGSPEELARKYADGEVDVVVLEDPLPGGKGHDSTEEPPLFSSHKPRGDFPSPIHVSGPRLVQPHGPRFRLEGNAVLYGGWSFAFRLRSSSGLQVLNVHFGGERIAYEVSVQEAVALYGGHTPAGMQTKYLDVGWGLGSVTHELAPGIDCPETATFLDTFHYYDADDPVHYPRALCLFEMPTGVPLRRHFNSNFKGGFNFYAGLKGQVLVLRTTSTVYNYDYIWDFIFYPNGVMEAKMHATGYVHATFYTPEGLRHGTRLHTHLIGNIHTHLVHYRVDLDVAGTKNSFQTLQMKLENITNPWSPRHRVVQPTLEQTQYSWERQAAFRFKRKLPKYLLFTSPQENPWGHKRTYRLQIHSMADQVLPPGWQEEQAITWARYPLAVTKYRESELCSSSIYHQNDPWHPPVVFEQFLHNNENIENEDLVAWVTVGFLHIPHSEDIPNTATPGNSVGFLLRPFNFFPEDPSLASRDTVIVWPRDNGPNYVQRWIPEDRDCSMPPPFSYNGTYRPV
The experiment is described as follows: DAO inhibition (Amplex Red continuous fluorescence assay). The experiment is classed as biochemical. The settings on record: 30 min pre-incubation at room temp; substrate histamine; read-out: Human DAO IC50. The procedure, abridged:
as §1
In the case of `NC/C(=C/F)COc1ccc(-c2cocn2)cc1` [Compound 30, (Z)-3-fluoro-2-((4-(oxazol-4-yl)phenoxy)methyl)prop-2-en-1-amine hydrochloride], the pIC50 is greater than 5.52.

In the case of `NC/C(=C/F)COc1ccc(-c2ncon2)cc1` [Compound 44, (Z)-2-((4-(1,2,4-OXADIAZOL-3-YL)PHENOXY)METHYL)-3-FLUOROPROP-2-EN-1-AMINE HYDROCHLORIDE], the pIC50 is greater than 5.52.

On to `Cn1ccc(-c2ccc(OC/C(=C\F)CN)cc2)n1` [Compound 54, (Z)-3-fluoro-2-((4-(1-methyl-1H-pyrazol-3-yl)phenoxy)methyl)prop-2-en-1-amine hydrochloride], for which the negative logarithm of the IC50 (pIC50) was greater than 5.52.

As to `NC/C(=C\F)COc1ccc(C2=NCCN2)cc1` [Compound 61, (E)-2-((4-(4,5-dihydro-1H-imidazol-2-yl)phenoxy)methyl)-3-fluoroprop-2-en-1-amine], the negative-log IC50 (pIC50) was greater than 5.52.

For the molecule `NC/C(=C/F)COc1ccc(-c2nnn[nH]2)cc1` [Compound 52, (Z)-2-((4-(1H-tetrazol-5-yl)phenoxy)methyl)-3-fluoroprop-2-en-1-amine hydrochloride], the pIC50 is greater than 5.52.

`NC/C(=C\F)CNC(=O)Nc1ccccc1` [Compound 71]: the pIC50 is 5.00 to 5.52.

Take `CC(C)(C)NC(=O)c1ccc(NC/C(=C\F)CN)cc1` [Compound 46, (Z)-4-((2-(aminomethyl)-3-fluoroalkyl)amino)-N-(tert-butyl)benzamide hydrochloride]: the negative-log IC50 (pIC50) is 5.00 to 5.52.
